In general, melting point refers to the temperature of the solid-liquid transition. Take `Cc1c(Cl)cc(C(C)(C)C)c(O)c1-c1nc2ccc(F)cc2c(=O)[nH]1` [Example 2, 2-(3-tert-Butyl-5-chloro-2-hydroxy-6-methyl-phenyl)-6-fluoro-3H-quinazolin-4-one]: the melting point lay within 224 to 225 °C. Take `Cc1c(F)cc(C(C)(C)C)c(O)c1-c1nc2ccc(F)cc2c(=O)[nH]1` [Example 3, 2-(-3-tert-Butyl-5-fluoro-2-hydroxy-6-methyl-phenyl)-6-fluoro-3H-quinazolin-4-one]: the melting point fell in the range of 247 to 248 °C. To `Cc1c(Cl)cc(C(C)(C)C)c(O)c1-c1nc2ccc(S(=O)(=O)C(F)(F)F)cc2c(=O)[nH]1` [Example 4, 2-(3-tert-Butyl-5-chloro-2-hydroxy-6-methyl-phenyl)-6-trifluoromethanesulfonyl-3H-quinazolin-4-one] belongs 297 to 298 °C; to `Cc1c(F)cc(C(C)(C)C)c(O)c1-c1nc2ccc(S(=O)(=O)C(F)(F)F)cc2c(=O)[nH]1` [Example 6, 2-(3-tert-Butyl-5-fluoro-2-hydroxy-6-methyl-phenyl)-6-trifluoromethanesulfonyl-3H-quinazolin-4-one], 257 to 258 °C.

With `CC(C)(C)c1cc2c(c(-c3nc4ccc(S(=O)(=O)C(F)(F)F)cc4c(=O)[nH]3)c1O)CCO2` [Example 7, 2-(6-tert-Butyl-5-hydroxy-2,3-dihydro-benzofuran-4-yl)-6-trifluoromethanesulfonyl-3H-quinazolin-4-one], the melting point lay within 235 to 237 °C.

The compound `CCc1c(Cl)cc(C(C)(C)C)c(O)c1-c1nc2ccc(S(=O)(=O)C(F)(F)F)cc2c(=O)[nH]1` [Example 8, 2-(-3-tert-Butyl-5-chloro-2-hydroxy-6-ethyl-phenyl)-6-trifluoromethanesulfonyl-3H-quinazolin-4-one] showed a melting point of 285 to 286 °C.

The record behind these values is patent US20100249161A1, “2- ( 2 -HYDROXYPHENYL) -QUINAZOLIN-4-ONES USEFUL FOR TREATING OBESITY AND DIABETES” (priority 2006, published 2010).
